The source of these data is patent US20230399327A1, “HIGH ACTIVITY HPK1 KINASE INHIBITOR” (ADLAI NORTYE BIOPHARMA CO., LTD., priority 2020, published 2023).

The target of this test is HPK1 kinase (Homo sapiens (Human), UniProt Q92918). The test can be described thus: HPK1 kinase activity inhibition (ADP-Glo Kinase Assay). It counts as biochemical. The conditions noted are these: HPK1, MBP substrate, ATP, 25° C. 60 min. The protocol: Test Example 1: Detection of Compound's Ability to Inhibit HPK1 Kinase Activity (Method 1)
HPK1 kinase, sequence (Q92918 whole entry): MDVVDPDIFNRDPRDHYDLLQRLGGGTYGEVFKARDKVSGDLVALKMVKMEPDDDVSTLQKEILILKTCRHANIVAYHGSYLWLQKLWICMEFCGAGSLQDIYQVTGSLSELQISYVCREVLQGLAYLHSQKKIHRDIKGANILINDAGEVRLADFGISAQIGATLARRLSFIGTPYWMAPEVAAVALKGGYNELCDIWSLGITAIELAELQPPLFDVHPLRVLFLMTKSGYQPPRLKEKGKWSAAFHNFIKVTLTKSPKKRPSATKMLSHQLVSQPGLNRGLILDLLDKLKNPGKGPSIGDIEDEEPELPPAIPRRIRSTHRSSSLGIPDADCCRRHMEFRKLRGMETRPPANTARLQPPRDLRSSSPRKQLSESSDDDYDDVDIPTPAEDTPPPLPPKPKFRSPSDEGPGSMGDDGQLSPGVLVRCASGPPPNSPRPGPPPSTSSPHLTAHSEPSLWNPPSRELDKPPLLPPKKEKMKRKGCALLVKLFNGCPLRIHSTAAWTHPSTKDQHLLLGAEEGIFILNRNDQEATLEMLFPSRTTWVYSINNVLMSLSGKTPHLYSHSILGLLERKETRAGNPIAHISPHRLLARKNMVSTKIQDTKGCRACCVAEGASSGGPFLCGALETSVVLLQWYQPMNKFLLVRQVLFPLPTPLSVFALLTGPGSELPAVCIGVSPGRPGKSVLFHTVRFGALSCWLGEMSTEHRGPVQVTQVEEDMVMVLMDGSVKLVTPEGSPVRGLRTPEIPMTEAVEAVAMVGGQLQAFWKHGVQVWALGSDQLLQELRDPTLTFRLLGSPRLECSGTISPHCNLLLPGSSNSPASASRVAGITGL
The specific operation is as follows: configure the enzymatic reaction system buffer (10 mM MOPS, pH 7.2, 5 mM β-glycerol-phosphate, 10 mM MgCl2, 0.8 mM EDTA, 2 mM EGTA, 0.1 mM DTT); the test compound (1 mM the compound stock solution in DMSO) was diluted with buffer to the highest concentration of 60 uM (containing 6% DMSO), and the compound with a concentration of 60 μM was initially diluted 5 times with a buffer containing 6% DMSO for a total of 8 points of gradient concentration; then dilute HPK1 kinase to 30 nM in buffer. Add 2 μl of HPK1 kinase diluent to each well of a Greiner 384-well microplate (Cat. No. 784075), and add 2 μl of buffer to the control well; add 1 μl of the diluted compound to the reaction well after brief centrifugation, and add 1 μl buffer solution containing 6% DMSO to the control well; after short centrifugation, place in a 25° C. constant temperature incubator (Shanghai Yiheng Scientific Instrument Co., Ltd., Cat. No.: LRH-150) and incubate for 20 minutes. Add 3 μl of reaction substrate (10 μM MBP and 20 μM ATP dissolved in distilled water) to each well, briefly centrifuge and incubate in a constant temperature incubator at 25° C. for 60 min, and use ADP-Glo Kinase Assay Kit to detect the enzymatic reaction activity, ADP-Glo Kinase Assay Kit detection is carried out according to the operating instructions of the kit. Data are described using the half maximal inhibitory concentration IC50 of the compound.
In general terms: In ADP-Glo the light output rises with the ADP produced.

Some results are limits rather than exact numbers.

With `COc1nc2c(cc1Nc1ncc3cccc(-c4ccc5c(cnn5C)c4)c3n1)CN(C)CC2` [Example 3, N-(2-methoxy-6-methyl-5,6,7,8-tetrahydro-1,6-naphthyridin-3-yl)-8-(1-methyl-1H-indazole-5-yl)quinazolin-2-amine], the IC50 (commonly the concentration at which inhibition is half-maximal) is under 0.1 nM.

In turn, `COc1nc2c(cc1Nc1ncc3cccc(-c4ccccc4F)c3n1)CN(C)CC2` [Example 4, 8-(2-fluorophenyl)-N-(2-methoxy-6-methyl-5,6,7,8-tetrahydro-1,6-naphthyridin-3-yl)quinazoline-2-amine] displayed an IC50 of under 0.1 nM.

Consider `COc1ccccc1-c1cccc2cnc(Nc3cc4c(nc3OC)CCN(C)C4)nc12` [Example 5, N-(2-methoxy-6-methyl-5,6,7,8-tetrahydro-1,6-naphthyridin-3-yl)-8-(2-methoxyphenyl)quinazole Lin-2-amine], for which the IC50 was under 0.1 nM.

Regarding `COc1cccc(-c2cccc3cnc(Nc4cc5c(nc4OC)CCN(C)C5)nc23)c1` [Example 6, N-(2-methoxy-6-methyl-5,6,7,8-tetrahydro-1,6-naphthyridin-3-yl)-8-(3-methoxyphenyl)quinazole Lin-2-amine], the IC50 is under 0.1 nM.

On to `COc1nc2c(cc1Nc1ncc3cccc(C4=CCOCC4)c3n1)CN(C)CC2` [Example 7, 8-(3,6-dihydro-2H-pyran-4-yl)-N-(2-methoxy-6-methyl-5,6,7,8-tetrahydro-1,6-naphthalenepyridin-3-yl)quinazolin-2-amine], for which the IC50 turned out to be 1.22 nM. In other words, the single-digit nanomolar range.

`COc1nc2c(cc1Nc1ncc3cccc(-c4cnn(C)c4)c3n1)CN(C)CC2` [Example 8, N-(2-methoxy-6-methyl-5,6,7,8-tetrahydro-1,6-naphthyridin-3-yl)-8-(1-methyl-1H-pyrazole-4-yl)quinazolin-2-amine] gave an IC50 of 1.84 nM.

Compound `COc1nc2c(cc1Nc1ncc3cccc(-c4cccnc4)c3n1)CN(C)CC2` [Example 9, N-(2-methoxy-6-methyl-5,6,7,8-tetrahydro-1,6-naphthyridin-3-yl)-8-(pyridin-3-yl)quinazoline-2-amine] showed an IC50 of 3.49 nM.

Regarding `COc1nc2c(cc1Nc1ncc3cccc(-c4ccc(=O)n(C)c4)c3n1)CN(C)CC2` [Example 10, 5-(2-((2-methoxy-6-methyl-5,6,7,8-tetrahydro-1,6-naphthyridin-3-yl)amino)quinazolin-8-yl)-1-Methylpyridin-2(1H)-one], the IC50 turned out to be 1.48 nM.

`COc1nc2c(cc1Nc1ncc3cccc(C4CCOCC4)c3n1)CN(C)CC2` [Example 11, N-(2-methoxy-6-methyl-5,6,7,8-tetrahydro-1,6-naphthyridin-3-yl)-8-(tetrahydro-2H-pyran-4-base) quinazolin-2-amine]: the half-inhibitory concentration (IC50) was determined as 1.54 nM.

The compound `CNC(=O)c1ccccc1-c1cccc2cnc(Nc3cc4c(nc3OC)CCN(C)C4)nc12` [Example 12, 2-(2-((2-methoxy-6-methyl-5,6,7,8-tetrahydro-1,6-naphthyridin-3-yl)amino)quinazolin-8-yl)-N-methylbenzamide] displayed an IC50 of 37.8 nM.

As to `COC(=O)c1cccc(-c2cccc3cnc(Nc4cc5c(nc4OC)CCN(C)C5)nc23)c1` [Example 13, 3-(2-((2-methoxy-6-methyl-5,6,7,8-tetrahydro-1,6-naphthyridin-3-yl)amino)quinazolin-8-yl) methyl benzoate], the IC50 is under 0.1 nM.

The compound `CNC(=O)c1cccc(-c2cccc3cnc(Nc4cc5c(nc4OC)CCN(C)C5)nc23)c1` [Example 14, 3-(2-((2-methoxy-6-methyl-5,6,7,8-tetrahydro-1,6-naphthyridin-3-yl)amino)quinazolin-8-yl)-N-methylbenzamide] displayed an IC50 of 1.92 nM.

In turn, `COc1nc2c(cc1Nc1ncc3cccc(C4=CCN(C(=O)OC(C)(C)C)CC4)c3n1)CN(C)CC2` [Example 15, 4-(2-((2-methoxy-6-methyl-5,6,7,8-tetrahydro-1,6-naphthyridin-3-yl)amino)quinazolin-8-yl)-3,6-Dihydropyridine-1(2H)-carboxylic acid tert-butyl ester] registered an IC50 of 9.85 nM.

Take `C=C(C)c1cccc2cnc(Nc3cc4c(nc3OC)CCN(C)C4)nc12` [Example 16, N-(2-methoxy-6-methyl-5,6,7,8-tetrahydro-1,6-naphthyridin-3-yl)-8-(prop-1-en-2-yl) quinazolin-2-amine]: the IC50 is 1.74 nM.

Compound `COc1nc2c(cc1Nc1ncc3cccc(C4=CCN(C(C)=O)CC4)c3n1)CN(C)CC2` [Example 17, 1-(4-(2-((2-methoxy-6-methyl-5,6,7,8-tetrahydro-1,6-naphthyridin-3-yl)amino)quinazoline-8-yl)-3,6-dihydropyridin-1(2H)-yl)ethan-1-one] registered a half-maximal inhibitory concentration (IC50) of under 0.1 nM.

`COc1nc2c(cc1Nc1ncc3cccc(-c4ccccc4OC(F)(F)F)c3n1)CN(C)CC2` [Example 18] had an IC50 of under 0.1 nM.

With `COc1nc2c(cc1Nc1ncc3cccc(-c4ccccc4SC)c3n1)CN(C)CC2` [Example 19, N-(2-methoxy-6-methyl-5,6,7,8-tetrahydro-1,6-naphthyridin-3-yl)-8-(2-(methylthio)phenyl) Quinazolin-2-amine], the IC50 was under 0.1 nM.

`COc1cccc(F)c1-c1cccc2cnc(Nc3cc4c(nc3OC)CCN(C)C4)nc12` [Example 21, 8-(2-fluoro-6-methoxyphenyl)-N-(2-methoxy-6-methyl-5,6,7,8-tetrahydro-1,6-naphthyridine-3-base) quinazolin-2-amine] showed an IC50 of under 0.1 nM.

In the case of `COc1nc2c(cc1Nc1ncc3cccc(-c4ccccc4OCc4ccccc4)c3n1)CN(C)CC2` [Example 22, 8-(2-(benzyloxy)phenyl)-N-(2-methoxy-6-methyl-5,6,7,8-tetrahydro-1,6-naphthyridin-3-yl) quinazolin-2-amine], 5.16 nM corresponded to half-maximal inhibition (IC50).

As to `COc1nc2c(cc1Nc1ncc3cccc(-c4cccnc4OC)c3n1)CN(C)CC2` [Example 23, N-(2-methoxy-6-methyl-5,6,7,8-tetrahydro-1,6-naphthyridin-3-yl)-8-(2-methoxypyridin-3-yl) quinazolin-2-amine], the 50% inhibitory concentration (IC50) is under 0.1 nM.

The compound `COc1nc2c(cc1Nc1ncc3cccc(N4CCCC4=O)c3n1)CN(C)CC2` [Example 24, 1-(2-((2-methoxy-6-methyl-5,6,7,8-tetrahydro-1,6-naphthyridin-3-yl)amino)quinazolin-8-yl) pyrrolidin-2-one] returned an IC50 of under 0.1 nM.

For the compound `COc1ccccc1-c1nccc2cnc(Nc3cc4c(nc3OC)CCN(C)C4)nc12` [Example 25, N-(2-methoxy-6-methyl-5,6,7,8-tetrahydro-1,6-naphthyridin-3-yl)-8-(2-methoxyphenyl)pyrido [3,4-d]pyrimidin-2-amine], the IC50 turned out to be 0.16 nM.

Take `COc1nc2c(cc1Nc1ncc3ccnc(-c4ccc(=O)n(C)c4)c3n1)CN(C)CC2` [Example 27, 5-(2-((2-methoxy-6-methyl-5,6,7,8-tetrahydro-1,6-naphthyridin-3-yl)amino)pyrido[3,4-d]pyrimidino-8-yl)-1-methylpyridin-2(1H)-one]: the IC50 came to 16.2 nM.

In the case of `COc1nc2c(cc1Nc1ncc3cccc(-c4ccn(C)n4)c3n1)CN(C)CC2` [Example 30, N-(2-methoxy-6-methyl-5,6,7,8-tetrahydro-1,6-naphthyridin-3-yl)-8-(1-methyl-1H-pyrazole-3-yl)quinazolin-2-amine], the IC50 came to 0.27 nM.

Regarding `COc1nc2c(cc1Nc1ncc3cccc(NCC4CCOCC4)c3n1)CN(C)CC2` [Example 31, N2-(2-methoxy-6-methyl-5,6,7,8-tetrahydro-1,6-naphthyridin-3-yl)-N8-((tetrahydro-2H-pyran-4-yl)methyl)quinazoline-2,8-diamine], the IC50 turned out to be 1.66 nM.

`COc1nc2c(cc1Nc1ncc3cccc(N4Cc5ccccc5C4=O)c3n1)CN(C)CC2` [Example 32, 2-(2-((2-methoxy-6-methyl-5,6,7,8-tetrahydro-1,6-naphthyridin-3-yl)amino)quinazolin-8-yl) isoindolin-1-one] registered a half-inhibitory concentration (IC50) of 3.61 nM.

Take `COc1nc2c(cc1Nc1ncc3ccnc(N4CCCCC4)c3n1)CN(C)CC2` [Example 33, N-(2-methoxy-6-methyl-5,6,7,8-tetrahydro-1,6-naphthyridin-3-yl)-8-(piperidin-1-yl) pyrido[3,4-d]pyrimidin-2-amine]: the half-maximal inhibitory concentration (IC50) turned out to be 0.52 nM. This IC50 is about 6.9-fold lower than that of the compound before.

Turning to `COc1nc2c(cc1Nc1ncc3ccnc(-c4cccnc4OC)c3n1)CN(C)CC2` [Example 34, N-(2-methoxy-6-methyl-5,6,7,8-tetrahydro-1,6-naphthyridin-3-yl)-8-(2-methoxypyridin-3-yl) pyrido[3,4-d]pyrimidin-2-amine], 0.61 nM corresponded to half-maximal inhibition (IC50).

In turn, `COc1nc2c(cc1Nc1ncc3ccnc(N4CCOCC4)c3n1)CN(C)CC2` [Example 35, N-(2-methoxy-6-methyl-5,6,7,8-tetrahydro-1,6-naphthyridin-3-yl)-8-morpholinopyrido[3,4-d]pyrimidin-2-amine] registered an IC50 of 1.16 nM.

`COc1nc2c(cc1Nc1ncc3cccc(-c4ccccn4)c3n1)CN(C)CC2` [Example 37, N-(2-methoxy-6-methyl-5,6,7,8-tetrahydro-1,6-naphthyridin-3-yl)-8-(pyridin-2-yl)quinazoline-2-amine] had an IC50 of 4.27 nM.
